The text below walks through data of PubChem BioAssay AID1996.

In brackets after ≈: the same amount, converted by molar mass.

The conditions of this series: buffer; pH 7.4; 200.0 µM.
For the compound `COC(=O)c1scc(S(=O)(=O)C(C)(C)C)c1N`, the solubility (kinetic) – broadly, the concentration staying in solution when a stock, usually in DMSO, is diluted into the medium – stood at 0.026 mg/mL (≈ 93.7 µM).
The result for `O=C(COc1ccc(/C=C\[N+](=O)[O-])cc1)N1CCOCC1` reads 0.0317 mg/mL (≈ 108 µM).
The result for `CS(=O)(=O)/C(C#N)=C/c1cccn1S(=O)(=O)c1ccccc1` reads 0.0068 mg/mL (≈ 20.2 µM).
The result for `O=[N+]([O-])C1=CC=C2C(=NC3(CCCCC3)N2O)C1=NC1CCCCC1` reads 0.0246 mg/mL (≈ 71.4 µM).
For the compound `CCCCNC(=O)OCCSCCS(=O)(=O)c1ccc(Cl)cc1`, the solubility (kinetic) stood at 0.0009 mg/mL (≈ 2.37 µM).
The result for `NC(=O)c1ccc(N2CCN(S(=O)(=O)c3cccs3)CC2)c([N+](=O)[O-])c1` reads 0.0023 mg/mL (≈ 5.8 µM); that for `O=C(NCC(c1ccco1)N1CCCC1)c1sc2cc(F)ccc2c1Cl` (stereo not drawn), 0.0075 mg/mL (≈ 19.1 µM); that for `Cc1ccc2c(c1)N(Cc1cccc(F)c1)C(=O)C(C)O2` (stereo not drawn), 0.0127 mg/mL (≈ 44.5 µM).
In the case of `Clc1cccc(CN2CCSCC2)c1`, the kinetic solubility was 0.0038 mg/mL (≈ 16.7 µM).
Take `CC(=O)c1cccc(NC(=O)c2cc(C)nn2-c2ccccc2)c1`: the solubility (kinetic) was above 0.0479 mg/mL.
Consider `CC(=O)Nc1ccc(CC#N)cc1`, for which the kinetic solubility was above 0.0261 mg/mL.
`COc1ccc(CNC(=O)COC(=O)c2cc3ccccc3cc2O)cc1OC` yielded a kinetic solubility of 0.0259 mg/mL (≈ 65.5 µM).
Compound `NC(=O)C1CCN(C(=O)c2cc(-c3ccc(Cl)cc3)nc3ccccc23)CC1` showed a solubility (kinetic) above 0.0591 mg/mL.
Consider `COc1ccc(NC(=O)COCC(=O)Nc2ccc(C)cc2)cc1`, for which the kinetic solubility was 0.0443 mg/mL (≈ 135 µM).
The result for `Cc1ccc(S(=O)(=O)CC(=O)NCc2ccccc2)cc1` reads 0.0297 mg/mL (≈ 97.9 µM).
The result for `CCC(C)C(NC(=O)c1ccccc1NC(=O)c1ccccc1)C(=O)O` (stereo not drawn) reads 0.0507 mg/mL (≈ 143 µM); that for `COc1cc2c(cc1OC)C(c1c(Cl)cccc1Cl)NC(=O)C2` (stereo not drawn), above 0.0528 mg/mL.
Consider `COc1ccc(NC(=O)CCCc2nc3ccccc3c(=O)[nH]2)cc1Cl`, for which the kinetic solubility came to 0.0145 mg/mL (≈ 39 µM).
The compound `CCOC(=O)c1cc2c(=O)[nH]ccc2nc1C(F)(F)F` had a solubility (kinetic) above 0.0429 mg/mL.
In the case of `Cc1cc(NC(=O)COC(=O)c2ccccc2Cl)no1`, the kinetic solubility amounted to 0.0163 mg/mL (≈ 55.3 µM).
The result for `CN1CCN(c2ccc(Cl)cc2NC(=O)/C=C/c2ccc(F)cc2)CC1` reads 0.0384 mg/mL (≈ 103 µM).
For `Cc1sc2ncnc(SCC(=O)N3CCOCC3)c2c1C`, the kinetic solubility was 0.0393 mg/mL (≈ 122 µM). This solubility kinetic and that of the compound before are within 1.5-fold of each other.
For `Cc1ccc(C(=O)OCC(=O)Nc2cccc(Cl)c2C)c(O)c1`, the kinetic solubility was below 0.0007 mg/mL.
`CN(C)C(CNc1ncnc2ccccc12)c1c(F)cccc1Cl` (stereo not drawn) registered a solubility (kinetic) of 0.0494 mg/mL (≈ 143 µM).
The result for `C/C(N)=C(/C#N)C(=O)COC(=O)c1cc2c(s1)CCCC2` reads 0.0022 mg/mL (≈ 7.23 µM); that for `NC1=NC(=O)/C(=C/c2ccc(OCC(=O)O)cc2)S1`, above 0.0417 mg/mL.
`COc1ccc(OC)c(NC(=O)NCCc2cccc(Cl)c2)c1` had a kinetic solubility of 0.0019 mg/mL (≈ 5.67 µM).
The result for `CSc1ncccc1C(=O)OCC(=O)NC1CCC(C)CC1` (stereo not drawn) reads 0.0164 mg/mL (≈ 50.9 µM); that for `CCOc1ccc(-c2csc(NC(=O)c3ccco3)n2)cc1`, 0.0026 mg/mL (≈ 8.27 µM).
The result for `Cc1ccccc1N1C(=O)c2cccc([N+](=O)[O-])c2C1=O` reads above 0.0423 mg/mL; that for `Cc1cc(C(=O)NCC(=O)Nc2c(C)cccc2C)c(C)o1`, 0.0238 mg/mL (≈ 79.2 µM); that for `CCCNC(=O)Nc1cccc(NC(C)=O)c1`, above 0.0353 mg/mL.
In the case of `Cc1ccc(NC(=O)COC(=O)C2C3CC4OC(=O)C2C4C3)cc1` (stereo not drawn), the kinetic solubility was 0.0473 mg/mL (≈ 144 µM).
The result for `Cc1ccc(N2C(=O)CC(N3CCc4ccccc43)C2=O)cc1Cl` (stereo not drawn) reads below 0.0004 mg/mL.
The compound `Cc1cc(SCc2c(F)cccc2Cl)nc(=O)[nH]1` returned a kinetic solubility of 0.0392 mg/mL (≈ 138 µM).
`O=NN1CCN(c2ccncc2S(=O)(=O)N2CCCCC2)CC1` displayed a solubility (kinetic) above 0.0509 mg/mL.
`COc1nc(-c2cccc([N+](=O)[O-])c2)nc2ccccc12` displayed a kinetic solubility below 0.0002 mg/mL.
`CSCCC1NC(=O)N(CC(=O)Nc2ccc(Cl)c(S(=O)(=O)N3CCOCC3)c2)C1=O` (stereo not drawn): the solubility (kinetic) was above 0.0736 mg/mL.
With `CCCc1nc2oc3c(NCC(C)O)ncnc3c2c2c1CCCC2` (stereo not drawn), the kinetic solubility was determined as 0.0004 mg/mL (≈ 1.17 µM).
The result for `N#C/C=C(/c1ccc(F)cc1)N1CCOCC1` reads above 0.0348 mg/mL.
Turning to `O=C(NC(=S)Nc1ccccc1Cl)c1cncc(Br)c1`, the kinetic solubility stood at 0.0012 mg/mL (≈ 3.24 µM).
The result for `Fc1cc(F)c2nc(N3CCCC3)sc2c1` reads 0.0094 mg/mL (≈ 39.1 µM).
The result for `c1ccc(N2CCN(Cc3ccc4c(c3)OCO4)CC2)nc1` reads 0.0321 mg/mL (≈ 108 µM); that for `CSc1nccn1C(=O)c1ccccc1[N+](=O)[O-]`, above 0.0395 mg/mL; that for `CCOC(=O)c1[nH]cnc1C(=O)Nc1ccc(F)cc1`, 0.0067 mg/mL (≈ 24.2 µM).
The result for `COc1cc(NC(=O)c2ccc(S(=O)(=O)N(C)c3ccccc3OC)cc2)cc(OC)c1` reads 0.0045 mg/mL (≈ 9.86 µM); that for `Cc1cc(NC(=O)Nc2cc(Cl)sc2Cl)no1`, below 0.0002 mg/mL; that for `CN(C)/C=C1\N=C(c2cccnc2Oc2ccc(Cl)cc2)OC1=O`, 0.0016 mg/mL (≈ 4.65 µM).
Consider `Nc1cc(=O)[nH]c(SCC(=O)c2ccc(O)cc2O)n1`, for which the kinetic solubility is above 0.044 mg/mL.
The result for `Cc1ccc(SC(=O)c2c(C)noc2-c2cc(C)on2)cc1` reads 0.003 mg/mL (≈ 9.54 µM); that for `CCOc1ccc(C2C(C#N)=C(N)Oc3nc[nH]c(=O)c32)cc1` (stereo not drawn), above 0.0465 mg/mL; that for `COc1ccc(S(=O)(=O)N2CCOCC2)cc1NC(=O)CN1CCCc2ccccc21`, 0.0029 mg/mL (≈ 6.51 µM).
The result for `CCOC(=O)c1nc(-c2ccc(OC)c(OC)c2)no1` reads 0.0408 mg/mL (≈ 147 µM).
The result for `O=C(c1cccnc1)N1CCN(S(=O)(=O)c2cccs2)CC1` reads above 0.0506 mg/mL; that for `CNc1snc(C)c1C(=O)OCC(=O)c1ccc(Cl)cc1`, 0.0026 mg/mL (≈ 8.01 µM).
In the case of `O=c1cc(N2CCCC2)c2ccccc2o1`, the kinetic solubility is above 0.0323 mg/mL.
With `O=C(NCc1ccccc1)C1(c2cccc(F)c2)CCCC1`, the solubility (kinetic) was 0.0122 mg/mL (≈ 41 µM).
In the case of `O=C(Nc1ccccc1)c1cccc(Cn2cc(C(F)(F)F)ccc2=O)c1`, the solubility (kinetic) amounted to 0.002 mg/mL (≈ 5.37 µM).
Compound `Cc1nc([N+](=O)[O-])cn1CC(O)c1ccc(F)cc1` (stereo not drawn) displayed a solubility (kinetic) above 0.0398 mg/mL.
The compound `CC1CCCCN1Cc1c[nH]c2ccccc12` (stereo not drawn) registered a solubility (kinetic) of 0.0288 mg/mL (≈ 126 µM).
`Cc1onc(-c2ccccc2)c1C(=O)N1CCN(c2ncccn2)CC1`: the solubility (kinetic) was above 0.0524 mg/mL.
The result for `O=c1[nH]c2cccnc2n1-c1ccc([N+](=O)[O-])cc1` reads 0.0133 mg/mL (≈ 51.9 µM); that for `CC(=O)Nc1ccccc1C(=O)OCc1ccccc1F`, 0.032 mg/mL (≈ 111 µM).
`N#CC1c2ccccc2C=CN1C(=O)c1ccccc1` (stereo not drawn) yielded a solubility (kinetic) of 0.0276 mg/mL (≈ 106 µM).
Consider `COc1ccc(NC(=O)CNC(=O)Cc2ccccc2)cc1OC`, for which the solubility (kinetic) is above 0.0493 mg/mL.
The result for `c1ccc(Oc2ncnc3sccc23)cc1` reads 0.0251 mg/mL (≈ 110 µM); that for `Cc1ccc2c(CN3CCC(C)CC3)cc(=O)oc2c1C`, 0.0039 mg/mL (≈ 13.7 µM).
The result for `c1nc2ccc(Cc3ccc4nc[nH]c4c3)cc2[nH]1` reads 0.0343 mg/mL (≈ 138 µM); that for `COc1ccc(NC(=O)c2cc3ccccc3cc2OC)cc1`, 0.0059 mg/mL (≈ 19.2 µM); that for `COC(=O)CN1C(=O)N/C(=C/c2ccc(OC)cc2)C1=O`, 0.0174 mg/mL (≈ 59.9 µM).
The result for `COc1ccc(CNC(=O)COC(=O)/C=C/c2ccc(Cl)cc2)cc1` reads below 0.0008 mg/mL; that for `CC(C)CC(=O)N/N=C/c1c(N)n(C)c(=O)n(C)c1=O`, above 0.0422 mg/mL.
With `Nc1cc(=O)[nH]c(SCc2ccc(Cl)cc2Cl)n1`, the solubility (kinetic) was found to be 0.001 mg/mL (≈ 3.31 µM).
Regarding `CN(C)c1ccc(/C=C/c2nc3ccccc3c(=O)n2CCO)cc1`, the kinetic solubility was found to be 0.0407 mg/mL (≈ 121 µM). Against the preceding compound, the solubility kinetic is about 41-fold higher.
Turning to `COc1ccc2cc(C#N)c(SCC(=O)Nc3nonc3C)nc2c1`, the solubility (kinetic) was found to be 0.0034 mg/mL (≈ 9.57 µM). This solubility kinetic lies about 12-fold lower than the previous one.
The result for `Cc1cccc(C(=O)OCC(=O)N2CCCCCC2)c1C` reads above 0.0434 mg/mL; that for `O=C1CC(/C=C/c2cccnc2)=Nc2ccccc2N1`, 0.0244 mg/mL (≈ 92.7 µM); that for `Cc1ccccc1-n1ccnc1SCC(=O)NCc1ccco1`, above 0.0491 mg/mL.
The result for `O=C(O)c1cccc2c1/C(=N/O)c1ccccc1-2` reads above 0.0359 mg/mL; that for `CCSc1ncc(Cl)c(C(=O)Nc2ccccc2OC)n1`, below 0.0002 mg/mL.
`O=C(O)[C@H](Cc1c[nH]c2ccccc12)Nc1ncccc1[N+](=O)[O-]` had a solubility (kinetic) above 0.0489 mg/mL.
For the compound `Cc1ccc(C)c(NC(=S)N2CCN(c3ccccn3)CC2)c1`, the solubility (kinetic) is 0.0141 mg/mL (≈ 43.2 µM).
The result for `Cc1ccc2c(NC(=S)NC(=O)c3ccccc3)cccc2n1` reads 0.0113 mg/mL (≈ 35.2 µM); that for `O=C(CN1C(=O)C2C3CCC(C3)C2C1=O)OCC(=O)c1ccccc1` (stereo not drawn), 0.0481 mg/mL (≈ 141 µM); that for `CC(C)(C)NC(=O)C(=O)NNC(=O)c1cccc([N+](=O)[O-])c1`, above 0.0462 mg/mL.
The result for `NC(=O)c1c(/N=C/c2cccnc2)sc2c1CCCC2` reads 0.022 mg/mL (≈ 77.1 µM); that for `COc1cccc(C(=O)N2CCOCC2)c1`, 0.0325 mg/mL (≈ 147 µM).
The result for `COc1cc(/C=C/C(=O)Nc2ccc(OC)c(S(=O)(=O)N3CCOCC3)c2)ccc1OCC#N` reads 0.0071 mg/mL (≈ 14.6 µM).
`Cc1ccc(OC(C)C(=O)Nc2cc(C)on2)cc1` (stereo not drawn): the solubility (kinetic) came out at 0.0362 mg/mL (≈ 139 µM).
Compound `CCC(C(=O)NC1CCCCCC1)c1ccccc1` (stereo not drawn) came in with a solubility (kinetic) of 0.0334 mg/mL (≈ 129 µM).
The compound `C#CCOC(=O)CN1C(=O)c2cccc3cccc(c23)C1=O` showed a kinetic solubility below 0.0006 mg/mL.
The result for `COc1ccc(N(C)C(=S)Nc2ccc3nc(C)c(C)nc3c2)cc1` reads 0.0041 mg/mL (≈ 11.6 µM); that for `CC(=O)Nc1ccc(S(=O)(=O)NC(C)CCc2ccccc2)cc1` (stereo not drawn), above 0.052 mg/mL; that for `CC(C)=CC(=O)OCc1csc(CC(=O)Nc2ccccc2C)n1`, above 0.0517 mg/mL.
The result for `O=C(/C=C/c1ccco1)NCCCN1CCOCC1` reads above 0.0396 mg/mL; that for `Cc1ccc(NC(=O)CN2CCCC2)cc1.Cl`, above 0.0382 mg/mL.
`O=C(Nc1ccc(Cl)cc1)C1C2CCCCC21` (stereo not drawn) displayed a solubility (kinetic) below 0.0005 mg/mL.
The result for `CCS(=O)(=O)N1CCC(C(=O)Nc2ccccc2OC)CC1` reads 0.0433 mg/mL (≈ 133 µM).
The result for `COc1ccc(/C=C/C(=O)O/N=C(\N)c2ccccn2)cc1OC` reads 0.0078 mg/mL (≈ 23.8 µM).
The result for `O=[N+]([O-])c1ccc(Nc2ccccn2)c([N+](=O)[O-])c1` reads 0.0027 mg/mL (≈ 10.4 µM); that for `Cc1onc(-c2c(F)cccc2Cl)c1C(=O)OCC(=O)N1C(C)CCCC1C` (stereo not drawn), 0.0417 mg/mL (≈ 102 µM); that for `O=C(OCC(=O)N1CCCCCC1)c1ccc[nH]c1=O`, above 0.0417 mg/mL.
For `COc1cc(/C=C/C(=O)NCC2CCCCC2)cc(OC)c1OC`, the kinetic solubility was below 0.0007 mg/mL.
